# From PMC6478823, “A suite of phenotypic assays to ensure pipeline diversity when prioritizing drug-like Cryptosporidium growth inhibitors” (Nature Communications, 2019)
# System: C. parvum
# Experiment: DNA replication assay (EdU incorporation)
# Format: cell-based, Cryptosporidium parvum
# Conditions: compound at EC90; EdU added 9 h post-infection for 2 h
# Excerpt: Following cell invasion, Cryptosporidium trophozoites grow and multiply to give rise to multinucleated type I meronts (Fig. 3a). The thymidine analog 5-ethynyl-2′-deoxyuridine (EdU) is efficiently incorporated into newly synthesized DNA, and can be detected using click chemistry. We used EdU to measure parasite intracellular DNA replication, as a surrogate for the more complex phenotype of intracellular growth and division. The approach for differentially labeling newly synthesized parasite DNA compared to host cell DNA was to take advantage of the fact that C. parvum replicates more quickly than the nearly confluent host cells. Thus, by adding EdU shortly before egress, it was possible to preferentially label replicating parasites (Fig. 3b, c). DNA staining with Hoechst labeled all of the host and parasite DNA, making it challenging to visualize and quantify parasite DNA. A simple DNA stain would also not distinguish pre-existing DNA from newly synthesized DNA (Fig. 3c). In contrast, EdU labeling only occurred with incorporation into newly synthesized DNA. Incorporated EdU was then easily stained for immunofluorescence and labeled parasites were quantified using high-content microscopy and an NIH ImageJ macro (Fig. 3c, DMSO condition). The […] hydroxyurea (10 mM), a known inhibitor of DNA replication, was used as a positive control for assay validation. […] Compounds with activity in this assay cannot be concluded to specifically target DNA replication, which is a complex phenotype.
# Confluent HCT-8 cell monolayers in glass bottom plates were infected with C. parvum, and compounds were added at EC90 following invasion. At 9 h post-infection, 10 µM EdU was added, followed by incubation for another 2 h, and then washing, fixing, and staining for microscopy. […] 40 × dry objective (NA = 0.7); scale = 5 µm. Arrows indicate selected parasites with EdU-labeled DNA. d Quantification of EdU incorporation. […] Data are mean and SD of 2–5 biological replicates.
# After incubation of cells with EdU for 2 h, cells were washed 3 times with PBS-D-gal and then fixed with PBS containing 4% PFA. Cells were then permeabilized and stained for EdU using the Click-iT® assay kit (Thermo Fisher Scientific, catalog# C10340) as per the manufacturer’s instructions. Cells were then imaged by focusing on parasites (note that the host cell nuclei are in a different focal plane) using a 40 × dry objective (0.7 NA) and EdU, and lectin numbers quantified using ImageJ software and the custom macro in Supplementary Method 1.
row,SMILES,DNA synthesis (mean % inhibition) [%]
1,Oc1c(C(Nc2ccccn2)c2cccc(Oc3ccccc3)c2)ccc2cccnc12 (stereo not drawn) [A-2],100.00

# Same assay, conditions: compound at EC90; average of replicates
row,SMILES,"DNA Synthesis Assay: Mean % Inhibition of EdU-labeling (normalized to parasite numbers), Average [%]"
1,CN(C)C[C@H](O)Cn1c2ccc(Br)cc2c2cc(Br)ccc21 (racemic) [Wiskostatin],36.39
2,Oc1c(C(Nc2ccccn2)c2cccc(Oc3ccccc3)c2)ccc2cccnc12 (stereo not drawn) [A-2],100.00

# Same assay, conditions: compound at EC90; result in words
row,SMILES,effect on C. parvum DNA replication / EdU incorporation
1,CN(C)C[C@H](O)Cn1c2ccc(Br)cc2c2cc(Br)ccc21 (racemic) [Wiskostatin],active

# Same assay, conditions: compound at EC90; single replicate 1
row,SMILES,"DNA Synthesis Assay: Mean % Inhibition of EdU-labeling (normalized to parasite numbers), Replicate 1 [%]"
1,CN(C)C[C@H](O)Cn1c2ccc(Br)cc2c2cc(Br)ccc21 (racemic) [Wiskostatin],67.16
2,Oc1c(C(Nc2ccccn2)c2cccc(Oc3ccccc3)c2)ccc2cccnc12 (stereo not drawn) [A-2],100

# Same assay, conditions: compound at EC90; single replicate 2
row,SMILES,"DNA Synthesis Assay: Mean % Inhibition of EdU-labeling (normalized to parasite numbers), Replicate 2 [%]"
1,CN(C)C[C@H](O)Cn1c2ccc(Br)cc2c2cc(Br)ccc21 (racemic) [Wiskostatin],42.34
2,Oc1c(C(Nc2ccccn2)c2cccc(Oc3ccccc3)c2)ccc2cccnc12 (stereo not drawn) [A-2],100

# Same assay, conditions: compound at EC90; single replicate 3
row,SMILES,"DNA Synthesis Assay: Mean % Inhibition of EdU-labeling (normalized to parasite numbers), Replicate 3 [%]"
1,CN(C)C[C@H](O)Cn1c2ccc(Br)cc2c2cc(Br)ccc21 (racemic) [Wiskostatin],31.25

# Same assay, conditions: compound at EC90; single replicate 4
row,SMILES,"DNA Synthesis Assay: Mean % Inhibition of EdU-labeling (normalized to parasite numbers), Replicate 4 [%]"
1,CN(C)C[C@H](O)Cn1c2ccc(Br)cc2c2cc(Br)ccc21 (racemic) [Wiskostatin],4.83

# Same assay, conditions: yes/no grouping by phenotypic assay result; compound at EC90
row,SMILES,DNA synthesis
1,Oc1c(C(Nc2ccccn2)c2cccc(Oc3ccccc3)c2)ccc2cccnc12 (stereo not drawn) [A-2],yes

# System: C. parvum DMC1 expression
# Experiment: Sexual differentiation assay (DMC1 expression)
# Format: cell-based, Cryptosporidium parvum
# Conditions: compound at asexual EC90, 48-72 h; average of replicates
# Excerpt: We utilized DMC1 as a marker of C. parvum sexual development, and used the anti-DMC1 monoclonal antibody to develop a moderate-throughput high-content microscopy assay for characterizing anticryptosporidial compounds (Fig. 6a). […] Therefore, in order to enable numerical comparison of the ability of compounds to block sexual development with moderate throughput, we adopted a strategy of reporting the percent inhibition of DMC1 expression by the previously determined EC90 of each compound in the standard asexual development assay (Fig. 6c and Supplementary Table 2).
# Fig. 6 Assay to measure asexual-to-sexual-stage conversion. a Schematic of the experimental approach. […] For b and c the mean and SD combined from at least two biological replicates with four technical replicates per experiment are shown. […] At given time points post-infection, infected cells were washed 3 times with PBS containing 111 mM of D-galactose, fixed for 15 min at room temperature with 4% paraformaldehyde in PBS, and permeabilized with 0.25% triton X-100 in PBS for 10 min at 37 °C. Cells were then washed 3 times with PBS and blocked at least overnight at 4 °C with 1% BSA in PBS (blocking buffer). Cells were stained with monoclonal antibody (1H10G7), either neat culture supernatant or 12.8 µg/mL of purified IgG in blocking buffer for 1 h at 37 °C, followed by 2 washes with PBS. Cells were then co-stained with a 1:500 dilution (4 µg/mL) of Alexa Fluor 568 goat anti-mouse IgG (Invitrogen, catalog# A-11004) and 1.33 µg/mL fluorescein-labeled Vicia villosa lectin (Vector Laboratories, catalog# FL-1231) diluted in blocking buffer for 1 h at 37 °C. Stains were then removed and 0.09 mM Hoechst 33258 (AnaSpec, catalog# AS-83219) also diluted in blocking buffer was added for another 15 min at 37 °C, followed by 2 PBS washes and imaging on a Nikon Eclipse Ti2000 epifluorescence microscope run with NIS-Elements Advanced Research software (Nikon, USA) and equipped with an EXi blue fluorescent microscopy camera (QImaging, Canada). For enumerating parasites, tiled 2 × 2 images with 15% overlapping edges were taken using a 40 × dry objective (0.7 NA), and for finer details, Z stack images were acquired using a 60 × oil objective (1.4 NA). Lectin positive cells in focus were first counted, followed by DMC1.
# For compound dose-response studies, the same assay was performed in 384-well plates and imaged using a 20 × dry objective (NA = 0.45). Tiled 4 × 4 to 6 × 6 images were taken. Images were analyzed using ImageJ software and the custom macro provided in Supplementary Method 2.
row,SMILES,"Asexual to sexual differentiation: Mean % DMC1 inhibition (normalized to host nuclei), Average [%]"
1,CN(C)C[C@H](O)Cn1c2ccc(Br)cc2c2cc(Br)ccc21 (racemic) [Wiskostatin],45.76
2,Oc1c(C(Nc2ccccn2)c2cccc(Oc3ccccc3)c2)ccc2cccnc12 (stereo not drawn) [A-2],36.33

# Same assay, conditions: compound at asexual EC90, 48-72 h; single replicate 1
row,SMILES,"Asexual to sexual differentiation: Mean % DMC1 inhibition (normalized to host nuclei), Replicate 1a [%]"
1,CN(C)C[C@H](O)Cn1c2ccc(Br)cc2c2cc(Br)ccc21 (racemic) [Wiskostatin],43.95
2,Oc1c(C(Nc2ccccn2)c2cccc(Oc3ccccc3)c2)ccc2cccnc12 (stereo not drawn) [A-2],56.25

# Same assay, conditions: compound at asexual EC90, 48-72 h; single replicate 2
row,SMILES,"Asexual to sexual differentiation: Mean % DMC1 inhibition (normalized to host nuclei), Replicate 2a [%]"
1,CN(C)C[C@H](O)Cn1c2ccc(Br)cc2c2cc(Br)ccc21 (racemic) [Wiskostatin],47.58
2,Oc1c(C(Nc2ccccn2)c2cccc(Oc3ccccc3)c2)ccc2cccnc12 (stereo not drawn) [A-2],16.42

# System: C. parvum
# Experiment: not given
# Format: cell-based, Cryptosporidium parvum
# Conditions: compound at EC90; average of replicates
# Method: The first step in infection is host cell invasion, which involves a complex process encompassing oocyst excystation, parasite motility, adhesion, and parasitophorous vacuole formation (Fig. 2a). Our strategy to assay for compounds affecting invasion was simply to expose C. parvum to compounds immediately after triggering excystation and throughout the invasion process, and then enumerate the parasite vacuoles after 3 h, prior to allowing the parasites to replicate (summarized in Fig. 2b).
# Fig. 2 Invasion Assay. a Overview of life cycle stage investigated during the invasion assay. Representative TEM images of a C. parvum oocyst and HCT-8 cell shortly after infection (Scale bar = 500 nm). b Schematic of experimental design. […] Each point represents the mean and SD of at least two biological replicates with four technical replicates per experiment.
# C. parvum invasion inhibition was measured by modifying the 48 h growth inhibition assay described above. […] In parallel, Iowa strain oocysts were excysted. […] Assay plates were incubated at 37 °C and 5% CO2 for 3 h.
row,SMILES,"Invasion Assay: Mean % Inhibition (parasites), Average [%]"
1,CN(C)C[C@H](O)Cn1c2ccc(Br)cc2c2cc(Br)ccc21 (racemic) [Wiskostatin],88.58
2,Oc1c(C(Nc2ccccn2)c2cccc(Oc3ccccc3)c2)ccc2cccnc12 (stereo not drawn) [A-2],-15.19

# Same assay, conditions: compound at EC90; result in words
row,SMILES,effect on host cell invasion / parasitophorous vacuole formation
1,CN(C)C[C@H](O)Cn1c2ccc(Br)cc2c2cc(Br)ccc21 (racemic) [Wiskostatin],inhibited parasitophorous vacuole formation

# Same assay, conditions: compound at EC90; result in words; listed as wiskostatin
row,SMILES,effect on host cell invasion / parasitophorous vacuole formation
1,CN(C)C[C@H](O)Cn1c2ccc(Br)cc2c2cc(Br)ccc21 (racemic) [Wiskostatin],active

# Same assay, conditions: compound at EC90; single biological replicate 1
row,SMILES,"Invasion Assay: Mean % Inhibition (parasites), Replicate 1a [%]"
1,CN(C)C[C@H](O)Cn1c2ccc(Br)cc2c2cc(Br)ccc21 (racemic) [Wiskostatin],90
2,Oc1c(C(Nc2ccccn2)c2cccc(Oc3ccccc3)c2)ccc2cccnc12 (stereo not drawn) [A-2],-13

# Same assay, conditions: compound at EC90; single biological replicate 2
row,SMILES,"Invasion Assay: Mean % Inhibition (parasites), Replicate 2a [%]"
1,CN(C)C[C@H](O)Cn1c2ccc(Br)cc2c2cc(Br)ccc21 (racemic) [Wiskostatin],92
2,Oc1c(C(Nc2ccccn2)c2cccc(Oc3ccccc3)c2)ccc2cccnc12 (stereo not drawn) [A-2],-17

# Same assay, conditions: compound at EC90; single biological replicate 3
row,SMILES,"Invasion Assay: Mean % Inhibition (parasites), Replicate 3a [%]"
1,CN(C)C[C@H](O)Cn1c2ccc(Br)cc2c2cc(Br)ccc21 (racemic) [Wiskostatin],82

# Same assay, conditions: compound at EC90; single biological replicate 4
row,SMILES,"Invasion Assay: Mean % Inhibition (parasites), Replicate 4a [%]"
1,CN(C)C[C@H](O)Cn1c2ccc(Br)cc2c2cc(Br)ccc21 (racemic) [Wiskostatin],90

# Same assay, conditions: yes/no grouping by phenotypic assay result; compound at EC90
row,SMILES,Sporozoite invasion
1,Oc1c(C(Nc2ccccn2)c2cccc(Oc3ccccc3)c2)ccc2cccnc12 (stereo not drawn) [A-2],no

# System: C. parvum
# Experiment: Egress, motility, reinvasion assay (PV ratio)
# Conditions: compound at EC90; average of replicates
# Method: For quantification of parasitophorous vacuoles over time, HCT-8 cells were grown to greater than 90% confluence in 384-well plates and infected with 11,000 oocysts after triggering excystation.
row,SMILES,"Egress and Reinvasion Assay: Mean PV ratios (19.5h:6h), Average"
1,CN(C)C[C@H](O)Cn1c2ccc(Br)cc2c2cc(Br)ccc21 (racemic) [Wiskostatin],1.04
2,Oc1c(C(Nc2ccccn2)c2cccc(Oc3ccccc3)c2)ccc2cccnc12 (stereo not drawn) [A-2],0.69

# Same assay, conditions: compound at EC90; single replicate 1
row,SMILES,"Egress and Reinvasion Assay: Mean PV ratios (19.5h:6h), Replicate 1a"
1,CN(C)C[C@H](O)Cn1c2ccc(Br)cc2c2cc(Br)ccc21 (racemic) [Wiskostatin],1.34
2,Oc1c(C(Nc2ccccn2)c2cccc(Oc3ccccc3)c2)ccc2cccnc12 (stereo not drawn) [A-2],0.67

# Same assay, conditions: compound at EC90; single replicate 2
row,SMILES,"Egress and Reinvasion Assay: Mean PV ratios (19.5h:6h), Replicate 2a"
1,CN(C)C[C@H](O)Cn1c2ccc(Br)cc2c2cc(Br)ccc21 (racemic) [Wiskostatin],0.98
2,Oc1c(C(Nc2ccccn2)c2cccc(Oc3ccccc3)c2)ccc2cccnc12 (stereo not drawn) [A-2],0.71

# Same assay, conditions: compound at EC90; single replicate 3
row,SMILES,"Egress and Reinvasion Assay: Mean PV ratios (19.5h:6h), Replicate 3a"
1,CN(C)C[C@H](O)Cn1c2ccc(Br)cc2c2cc(Br)ccc21 (racemic) [Wiskostatin],0.80

# Same assay, conditions: compound at EC90; single replicate 4
row,SMILES,"Egress and Reinvasion Assay: Mean PV ratios (19.5h:6h), Replicate 4a"
1,CN(C)C[C@H](O)Cn1c2ccc(Br)cc2c2cc(Br)ccc21 (racemic) [Wiskostatin],1.04
